Like-named read-outs stand apart in the source and are kept apart here.
What was measured:
[1] = molecular target: human α4β2 nAChR subtype (Homo sapiens (Human), UniProt P17787+P43681); assay: Radioligand ([3H]nicotine) binding at α4β2 nAChR, SH-EP1/human α4β2 clonal cell membranes; details: read-out: Human α4β2 Ki
Protocol: Preparation of Membranes from SH-EP1/Human α4β2 Clonal Cells:
Cell pellets from 40 150 mm culture dishes were pooled, and homogenized by Polytron (Kinematica GmbH, Switzerland) in 20 milliliters of ice-cold preparative buffer. The homogenate was centrifuged at 48,000 g for 20 minutes at 4° C. The resulting pellet was re-suspended in 20 mL of ice-cold preparative buffer and stored at −20° C.
(§1) On the day of the assay, the frozen membranes were thawed and spun at 48,000×g for 20 min. The supernatant was decanted and discarded. The pellet was resuspended in Dulbecco's phosphate buffered saline (PBS, Life Technologies) pH 7.4 and homogenized with the Polytron for 6 seconds. Protein concentrations were determined using a Pierce BCA Protein Assay Kit, with bovine serum albumin as the standard (Pierce Chemical Company, Rockford, Ill.).
(§2) Tissue was rinsed 3 times in PBS, pH 7.4. Scintillation fluid was added to filters containing the washed tissue and allowed to equilibrate.
(§3) Data were expressed as disintegrations per minute (DPMs). Within each assay, each point had 2-3 replicates. The replicates for each point were averaged and plotted against the log of the drug concentration.

[2] = molecular target: α7 nAChR subtype (Rattus norvegicus (Rat), UniProt Q05941); assay: Radioligand ([3H]MLA) binding at α7 nAChR, rat hippocampus membranes
Chain of α7 nAChR subtype (Q05941 23-502): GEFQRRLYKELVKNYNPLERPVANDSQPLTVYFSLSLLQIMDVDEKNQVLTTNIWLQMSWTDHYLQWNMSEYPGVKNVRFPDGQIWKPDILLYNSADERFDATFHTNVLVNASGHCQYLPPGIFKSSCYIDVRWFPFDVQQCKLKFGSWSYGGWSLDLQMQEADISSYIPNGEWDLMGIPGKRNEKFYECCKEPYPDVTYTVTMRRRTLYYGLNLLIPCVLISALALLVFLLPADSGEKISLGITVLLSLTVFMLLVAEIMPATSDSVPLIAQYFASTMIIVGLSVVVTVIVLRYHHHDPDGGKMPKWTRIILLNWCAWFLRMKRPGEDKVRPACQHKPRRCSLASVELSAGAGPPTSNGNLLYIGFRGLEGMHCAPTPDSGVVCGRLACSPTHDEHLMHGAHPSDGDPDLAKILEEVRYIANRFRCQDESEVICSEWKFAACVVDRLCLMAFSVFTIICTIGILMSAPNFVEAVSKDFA
Protocol: Rats (female, Sprague-Dawley), weighing 150-250 g, were maintained on a 12 h light/dark cycle and were allowed free access to water and food supplied by PMI Nutrition International, Inc. Animals were anesthetized with 70% CO2, then decapitated. Brains were removed and placed on an ice-cold platform. […] The homogenate was centrifuged at 18,000×g for 20 min at 4° C. and the resulting pellet was re-suspended in 10 volumes of ice-cold water. After 60 min incubation on ice, a new pellet was collected by centrifugation at 18,000×g for 20 min at 4° C. The final pellet was re-suspended in 10 volumes of buffer and stored at −20° C.
The binding of [^3H]MLA was measured using a modification of the methods of Davies et al., Neuropharmacol. […] [^3H]MLA (Specific Activity=25-35 Ci/mmol) was obtained from Tocris. The binding of [^3H]MLA was determined using a 2 h incubation at 21° C. Incubations were conducted in 48-well micro-titre plates and contained about 200 μg of protein per well in a final incubation volume of 300 μL. The incubation buffer was PBS and the final concentration of [^3H]MLA was 5 nM. The binding reaction was terminated by filtration of the protein containing bound ligand onto glass fiber filters (GF/B, Brandel) using a Brandel Tissue Harvester at room temperature. […] Each filter was washed with PBS (3×1 mL) at room temperature. Non-specific binding was determined by inclusion of 50 μM non-radioactive MLA in selected wells.
The inhibition of [^3H]MLA binding by test compounds was determined by including seven different concentrations of the test compound in selected wells. Each concentration was replicated in triplicate. IC50 values were estimated as the concentration of compound that inhibited 50 percent of specific [^3H]MLA binding.

[3] = molecular target: rat α4β2 nAChR subtype (Rattus norvegicus (Rat), UniProt P09483+P12390); assay: Radioligand ([3H]nicotine) binding at α4β2 nAChR, rat cortex membranes
Chain of rat α4β2 nAChR subtype (P09483 31-630): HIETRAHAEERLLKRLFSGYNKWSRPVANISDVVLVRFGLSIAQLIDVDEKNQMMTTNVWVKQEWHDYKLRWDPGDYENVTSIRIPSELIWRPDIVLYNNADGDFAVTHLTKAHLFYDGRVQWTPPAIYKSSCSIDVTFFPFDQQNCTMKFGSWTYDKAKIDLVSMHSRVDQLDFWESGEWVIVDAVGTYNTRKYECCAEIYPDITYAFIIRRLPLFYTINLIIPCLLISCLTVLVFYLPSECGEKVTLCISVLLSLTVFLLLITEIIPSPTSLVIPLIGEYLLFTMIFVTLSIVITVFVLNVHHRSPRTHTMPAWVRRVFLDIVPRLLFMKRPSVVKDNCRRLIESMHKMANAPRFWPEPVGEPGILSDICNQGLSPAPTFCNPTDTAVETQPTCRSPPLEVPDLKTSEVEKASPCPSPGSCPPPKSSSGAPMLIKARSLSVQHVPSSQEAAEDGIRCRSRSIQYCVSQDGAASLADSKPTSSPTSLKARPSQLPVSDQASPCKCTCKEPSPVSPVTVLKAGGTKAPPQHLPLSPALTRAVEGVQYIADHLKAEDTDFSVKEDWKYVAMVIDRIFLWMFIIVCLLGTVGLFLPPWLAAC
Chain of rat α4β2 nAChR subtype (P12390 25-500): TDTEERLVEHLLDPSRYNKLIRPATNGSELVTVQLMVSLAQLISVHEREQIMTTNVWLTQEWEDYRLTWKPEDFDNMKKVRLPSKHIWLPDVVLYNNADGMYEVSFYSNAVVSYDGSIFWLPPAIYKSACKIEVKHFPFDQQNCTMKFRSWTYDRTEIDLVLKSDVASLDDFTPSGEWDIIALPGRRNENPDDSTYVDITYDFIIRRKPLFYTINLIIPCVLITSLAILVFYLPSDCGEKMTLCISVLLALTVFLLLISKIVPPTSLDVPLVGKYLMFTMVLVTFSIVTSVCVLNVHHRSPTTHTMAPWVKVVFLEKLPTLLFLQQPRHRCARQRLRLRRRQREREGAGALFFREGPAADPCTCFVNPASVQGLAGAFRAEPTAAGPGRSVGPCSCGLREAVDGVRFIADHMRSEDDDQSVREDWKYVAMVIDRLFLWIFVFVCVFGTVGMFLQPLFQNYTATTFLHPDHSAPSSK
Protocol: Preparation of Membranes from Rat Cortex:
Rats (female, Sprague-Dawley), weighing 150-250 g, were maintained on a 12 h light/dark cycle and were allowed free access to water and food supplied by PMI Nutrition International, Inc. Animals were anesthetized with 70% CO2, and then decapitated. Brains were removed and placed on an ice-cold platform. […] The homogenate was centrifuged at 18,000×g for 20 min at 4° C. and the resulting pellet was re-suspended in 20 volumes of ice-cold water. After 60 min incubation on ice, a new pellet was collected by centrifugation at 18,000×g for 20 min at 4° C. The final pellet was re-suspended in 10 volumes of buffer and stored at −20° C.
as §1, §2, §3

[4] = [3H]nicotine 5 nM, SH-EP1/human α4β2 membranes
[5] = [3H]MLA 5 nM, rat hippocampus membranes
[6] = [3H]nicotine 5 nM, rat cortex membranes
[7] = did not bind sufficiently in HTS at α7 to warrant Ki determination

Chain of human α4β2 nAChR subtype (P43681 29-627): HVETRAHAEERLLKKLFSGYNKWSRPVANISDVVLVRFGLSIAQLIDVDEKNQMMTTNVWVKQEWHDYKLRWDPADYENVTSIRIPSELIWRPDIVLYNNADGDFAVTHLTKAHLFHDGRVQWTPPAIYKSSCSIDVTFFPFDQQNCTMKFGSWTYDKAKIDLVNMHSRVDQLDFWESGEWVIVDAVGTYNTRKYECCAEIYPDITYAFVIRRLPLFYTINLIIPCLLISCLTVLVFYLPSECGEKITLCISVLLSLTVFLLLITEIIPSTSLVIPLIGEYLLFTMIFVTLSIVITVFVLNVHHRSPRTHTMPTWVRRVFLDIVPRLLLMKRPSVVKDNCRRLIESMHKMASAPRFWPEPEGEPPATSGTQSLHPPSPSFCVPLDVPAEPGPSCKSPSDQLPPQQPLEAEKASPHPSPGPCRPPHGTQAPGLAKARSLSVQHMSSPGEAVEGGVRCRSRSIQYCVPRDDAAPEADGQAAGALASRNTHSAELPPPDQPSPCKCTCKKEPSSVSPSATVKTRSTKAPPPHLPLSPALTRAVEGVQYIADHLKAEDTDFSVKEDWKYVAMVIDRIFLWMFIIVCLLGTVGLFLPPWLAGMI
Chain of human α4β2 nAChR subtype (P17787 26-502): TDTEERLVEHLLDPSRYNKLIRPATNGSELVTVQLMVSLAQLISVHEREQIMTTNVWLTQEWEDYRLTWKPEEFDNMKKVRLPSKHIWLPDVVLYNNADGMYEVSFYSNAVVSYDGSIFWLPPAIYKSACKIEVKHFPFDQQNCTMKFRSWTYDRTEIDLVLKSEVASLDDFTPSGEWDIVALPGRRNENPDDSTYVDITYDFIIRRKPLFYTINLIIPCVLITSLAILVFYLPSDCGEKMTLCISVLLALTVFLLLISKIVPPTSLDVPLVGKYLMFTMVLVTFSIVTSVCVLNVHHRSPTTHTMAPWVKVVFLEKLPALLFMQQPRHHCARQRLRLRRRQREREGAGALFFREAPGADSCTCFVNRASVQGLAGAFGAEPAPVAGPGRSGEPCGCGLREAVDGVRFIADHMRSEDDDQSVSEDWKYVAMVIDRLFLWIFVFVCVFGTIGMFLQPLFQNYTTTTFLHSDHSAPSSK

Row | Structure (SMILES) | Ki [1, 4] | Ki [2, 5] | Ki [3, 6] | α7 high through-put screening outcome (Ki not determined) [2, 7] | Ki [3] | Ki [2] | Ki [1] | α7 high through-put screening outcome (Ki not determined) [2]
1 | O=C(c1cc(-c2ccccc2)co1)N1CC2CNCC2C1 (centres unmarked) | 86 nM | 12000 nM | 260 nM |  |  |  |  | 
2 | O=C(c1cnco1)N1CC2CNCC(C2)C1 | 26 nM |  | 28 nM | ND; failed HTS |  |  |  | 
3 | Cc1cc(F)c(C(=O)N2CC3CNCC3C2)o1 (centres unmarked) | 14 nM |  |  | ND; failed HTS | 65 nM |  |  | 
4 | CCCCC#Cc1coc(C(=O)N2CC3CNCC3C2)c1 (centres unmarked) | 21 nM |  | 43 nM | ND; failed HTS |  |  |  | 
5 | O=C(c1ccoc1)N1CC2CNCC2C1 (centres unmarked) | 220 nM | 3100 nM |  |  | 53 nM |  |  | 
6 | Cc1occc1C(=O)N1CC2CNCC2C1 (centres unmarked) | 29 nM | 160000 nM | 61 nM |  |  |  |  | 
7 | O=C(c1ncco1)N1CC2CNCC(C2)C1 | 85 nM |  | 370 nM | ND; failed HTS |  |  |  | 
8 | Cc1cc(C(=O)N2CC3CNCC3C2)on1 (centres unmarked) | 31 nM |  | 32 nM | ND; failed HTS |  |  |  | 
9 | CC(=O)Nc1ccc(C(=O)N2CC3CNCC(C3)C2)o1 | 210 nM |  | 87 nM | ND; failed HTS |  |  |  | 
10 | Cc1ccc(C(=O)N2CC3CNCC3C2)o1 (centres unmarked) | 28 nM |  |  |  | 130 nM | 23000 nM |  | 
11 | O=C(c1cc(C(F)(F)F)co1)N1CC2CNCC2C1 (centres unmarked) | 36 nM |  | 320 nM | ND; failed HTS |  |  |  | 
12 | O=C(c1cc(Br)c(Br)o1)N1CC2CNCC2C1 (centres unmarked) |  |  |  | ND; failed HTS |  |  |  | 
13 | Cc1cc(F)c(C(=O)N2CC3CNCC(C3)C2)o1 | 62 nM |  | 500 nM | ND; failed HTS |  |  |  | 
14 | O=C(c1ccc(C#Cc2ccccc2)o1)N1CC2CNCC2C1 (centres unmarked) | 43 nM | 3200 nM | 230 nM |  |  |  |  | 
15 | COc1coc(C(=O)N2CC3CNCC3C2)c1OC (centres unmarked) | 40 nM |  | 140 nM | ND; failed HTS |  |  |  | 
16 | O=C(c1ccc(Br)o1)N1CC2CNCC2C1 (centres unmarked) | 73 nM |  | 54 nM |  |  | 12000 nM |  | 
17 | O=C(c1ccc(Br)o1)N1CC2CNCC(C2)C1 | 51 nM |  |  | ND; failed HTS | 41 nM |  |  | 
18 | O=C(c1cc(Br)no1)N1CC2CNCC2C1 (centres unmarked) | 44 nM |  | 17 nM | ND; failed HTS |  |  |  | 
19 | O=C(c1cc(Br)co1)N1CC2CNCC(C2)C1 |  |  | 12 nM |  |  |  | 1.7 nM | ND; failed HTS
20 | O=C(c1ccco1)N1CC2CNCC(C2)C1 [N-(furan-2-ylcarbonyl)-3,7-diazabicyclo[3.3.1]nonane] | 9.9 nM |  | 31 nM |  |  | 15000 nM |  | 
21 | N#Cc1ccoc1C(=O)N1CC2CNCC(C2)C1 | 31 nM |  | 110 nM | ND; failed HTS |  |  |  | 
22 | O=C(c1occc1Cl)N1CC2CNCC2C1 (centres unmarked) | 2.4 nM |  | 2.8 nM | ND; failed HTS |  |  |  | 
23 | C#Cc1ccc(C(=O)N2CC3CNCC3C2)o1 (centres unmarked) | 48 nM |  | 140 nM | ND; failed HTS |  |  |  | 
24 | O=C(c1cc(C2CC2)on1)N1CC2CNCC(C2)C1 | 83 nM |  |  | ND; failed HTS | 25 nM |  |  | 
25 | Cc1oc(C(=O)N2CC3CNCC(C3)C2)cc1Br | 5.2 nM |  |  | ND; failed HTS | 7.5 nM |  |  | 
26 | O=C(c1cc(Br)c(Br)o1)N1CC2CNCC(C2)C1 |  |  |  | ND; failed HTS |  |  |  | 
27 | O=C(c1cc(Cl)co1)N1CC2CNCC2C1 (centres unmarked) | 9.7 nM |  | 21 nM | ND; failed HTS |  |  |  | 
28 | Cc1ccoc1C(=O)N1CC2CNCC2C1 (centres unmarked) | 54 nM | 25000 nM | 44 nM |  |  |  |  | 
29 | Cc1cc(C(=O)N2CC3CNCC3C2)no1 (centres unmarked) | 84 nM |  | 150 nM | ND; failed HTS |  |  |  | 

— patent publication US8921410B2, “Nicotinic acetylcholine receptor sub-type selective amides of diazabicycloalkanes” (Targacept, Inc., priority 2006, dated 2014)
